{"source": "patent US6537545B1", "about": "“Use of corneal hardening agents in enzymeorthokeratology” (ISTA Pharmaceuticals, Inc., priority 1998, dated 2003)", "tested_on": "eyes of non-sighted human patients", "test": "Safety of enzymatic corneaplasty with hyaluronidase and topical 3% glyceraldehyde in seven non-sighted human patients (Example 6)", "format": "in vivo", "conditions": "500 IU hyaluronidase, lenses, 3% glyceraldehyde 2 drops 4 times per day, 28 days", "method": "The methodology used in this study was similar to that discussed in Example 4. Subjects were injected intrastromally with 500 IU of a hyaluronidase solution on the first day of the study following an initial eye examination. The injected enzyme was allowed to digest the corneal substrate for seven (7) days. At that time contact lenses were fitted to the treated eyes of the subjects. The subjects wore the lenses for another seven days at which time the topical application of the 3% glyceraldehyde solution was first applied. The 3% glyceraldehyde solution was applied at 2 drops, 4 times per day for the following 28 days. At the end of the 28 days the contact lenses were removed and the glyceraldehyde treatments were ceased.\nThe subjects were examined and data was recorded throughout the treatment period and following the cessation of treatment. […] The only apparent negative effects of the treatment were incidents of edema and minor manifestations of SPK. These negative manifestations resolved favorably for most patients.", "data": [{"smiles": "O=CC(O)CO", "note": "(stereo not shown) [glyceraldehyde]", "values": [{"measurement": "negative effects of enzyme injection or glyceraldehyde application", "value": "no significant negative effects"}]}]}
